Experimental findings from patent publication US20260176289A1, “SMALL MOLECULE INHIBITORS OF KRAS PROTEINS” (Merck Sharp & Dohme LLC, priority 2022, published 2026) are described below.

Each structure is given as a SMILES string.

What all share (assay type): biochemical
For assay [1], the target named is T1, KRAS G12V (amino acids 1-169) (Homo sapiens, UniProt P01116, G12V).
T1 construct: made in house; host or cells: E. coli
As to the kind of experiment: SOS-catalyzed nucleotide exchange assay (Procedure B, BODIPY FL GDP displacement), KRAS G12V. The note with it: read-out: KRAS G12V GNE IC50. Here is the method: (§1) Procedure for SOS-Catalyzed Nucleotide Exchange Assay for KRAS-G12C/D/V/WT (Procedure B)
(§2) Recombinant KRAS G12C (amino acids 1-169, SEQ ID NO:9), KRAS G12D (amino acids 1-169, SEQ ID NO: 10), KRAS G12V (amino acids 1-169, SEQ ID NO: 11), KRAS WT (amino acids 1-169, SEQ ID NO:12) and SOS1 (amino acids 564-1049, SEQ ID NO: 13) proteins were expressed in E. coli and purified by affinity chromatography. To prepare each BODIPY™ FL GDP-bound KRAS protein, 50 μM KRAS proteins were incubated with 0.5 mM BODIPY™ FL GDP (Invitrogen, G22360) in a loading buffer (20 mM Tris-HCl pH 7.5, 50 mM NaCl, 1 mM DTT and 2.5 mM EDTA) for 1 hour on ice. After the incubation, MgCl2 was added to a final concentration of 10 mM, followed by an incubation at room temperature for 30 minutes. The mixtures were allowed to pass through a NAP-5 column to remove free nucleotides and purified BODIPY™ FL GDP-bound KRAS G12C, G12D, G12V and WT proteins were used for compound evaluation.
(§3) The inhibitory activity of compounds on recombinant KRAS is measured by the displacement of the bound BODIPY™ GDP. Specifically, 2.5 nM of each BODIPY™ FL GDP-bound KRAS complex was incubated with various concentrations of compound in a reaction buffer (20 mM Tris-HCl pH 7.5, 100 mM NaCl, 1 mM MgCl2, 2 mM DTT, 0.1% Tween 20) at 25° C. for 1 hour. After the incubation, recombinant SOS1 and GMPPNP (Jena Bioscience GmbH, NU-401) were added and incubated at room temperature for 30 minutes to proceed SOS1-dependent GDP-GTP exchange reaction on KRAS. Displacement of BODIPY™ FL GDP by Guanosine-5′-[(β,γ)-imido]triphosphate, Tetralithium salt (GMPPNP) was measured by calculating the ratio of fluorescence intensities of BODIPY™ FL before and after the exchange reaction. Percent Inhibition was calculated by setting the fluorescence ratio from the reaction without test compound (DMSO control) and the fluorescence ratio from the reaction without SOS1 and GMPPNP as 0% and 100% inhibition, respectively. Dose response curves were analyzed using a 4-parameter logistic model to calculate IC50 values.

Assay [2] deals with T2, KRAS G12C (amino acids 1-169) (Homo sapiens, UniProt P01116, G12C).
T2 construct: made in house; host or cells: E. coli
As to the kind of experiment: SOS-catalyzed nucleotide exchange assay (Procedure B, BODIPY FL GDP displacement), KRAS G12C. The note with it: read-out: KRAS G12C GNE IC50. The protocol:
as §1, §2, §3

In assay [3] the target is T3, KRAS G12D (amino acids 1-169) (Homo sapiens, UniProt P01116, G12D).
T3 construct: made in house; host or cells: E. coli
As to the kind of experiment: SOS-catalyzed nucleotide exchange assay (Procedure B, BODIPY FL GDP displacement), KRAS G12D. The note with it: read-out: KRAS G12D GNE IC50. The protocol:
as §1, §2, §3

Assay [4] concerns the target T4, KRAS WT (amino acids 1-169) (Homo sapiens, UniProt P01116).
T4 construct: made in house; host or cells: E. coli
As to the kind of experiment: SOS-catalyzed nucleotide exchange assay (Procedure B, BODIPY FL GDP displacement), KRAS WT. The following applies: read-out: KRAS WT GNE IC50. Here is the method: as §1, §2, §3

T3 sequence (P01116 with tags, fused parts or gaps isoform P01116-2 G12D): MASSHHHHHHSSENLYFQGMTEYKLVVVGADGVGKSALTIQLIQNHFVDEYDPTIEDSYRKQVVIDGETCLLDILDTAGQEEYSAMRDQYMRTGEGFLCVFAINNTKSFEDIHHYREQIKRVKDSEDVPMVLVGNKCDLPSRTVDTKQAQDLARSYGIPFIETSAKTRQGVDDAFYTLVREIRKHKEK
T1 sequence (P01116 with tags, fused parts or gaps isoform P01116-2 G12V): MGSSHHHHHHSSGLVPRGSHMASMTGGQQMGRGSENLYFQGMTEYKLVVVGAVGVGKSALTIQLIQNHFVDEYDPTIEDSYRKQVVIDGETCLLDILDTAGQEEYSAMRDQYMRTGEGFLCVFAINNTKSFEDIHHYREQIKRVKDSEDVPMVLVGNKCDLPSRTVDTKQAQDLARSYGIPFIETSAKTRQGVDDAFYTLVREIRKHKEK
T2 sequence (P01116 with tags, fused parts or gaps isoform P01116-2 G12C): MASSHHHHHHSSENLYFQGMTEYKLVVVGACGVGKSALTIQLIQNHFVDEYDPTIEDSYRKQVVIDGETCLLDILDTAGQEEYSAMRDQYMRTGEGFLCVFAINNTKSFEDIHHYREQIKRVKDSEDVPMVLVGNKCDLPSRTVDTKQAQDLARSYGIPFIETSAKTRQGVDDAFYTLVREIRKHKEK
T4 sequence (P01116 with tags, fused parts or gaps isoform P01116-2): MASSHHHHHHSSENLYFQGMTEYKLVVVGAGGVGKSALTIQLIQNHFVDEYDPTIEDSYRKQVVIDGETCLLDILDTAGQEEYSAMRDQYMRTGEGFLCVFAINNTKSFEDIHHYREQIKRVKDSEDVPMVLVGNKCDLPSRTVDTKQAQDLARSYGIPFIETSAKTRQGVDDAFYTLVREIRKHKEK

In general, IC50 refers to the midpoint of a concentration-inhibition curve. Take `Cc1cc2[nH]ncc2c(-c2nccc3c2sc2nc(OC[C@@]45CCCN4C[C@H](F)C5)nc(NC45CC(C4)C5)c23)c1C(F)(F)F` [Ex-181, N-(bicyclo[1.1.1]pentan-1-yl)-2-(((2R,7aS)-2-fluoro-tetrahydro-1H-pyrrolizin-7a(5H)-yl)-methoxy)-8-(6-methyl-5-(trifluoromethyl)-1H-indazol-4-yl)pyrido [4′,3′:4,5]thieno[2,3-d] pyrimidin-4-amine]: the IC50 stood at 758 nM in assay [1], 787 nM in assay [2], 1320 nM in assay [3] and 1480 nM in assay [4].
The corresponding values for `C[C@@]1(O)COCCN(c2nc(OC[C@@]34CCCN3C[C@H](F)C4)nc3sc4c(-c5c6c(cc7[nH]ncc57)CCC6=O)nccc4c23)C1` [Ex-89, 4-(2-(((2R,7aS)-2-fluorotetrahydro-1H-pyrrolizin-7a(5H)-yl)methoxy)-4-((S)-6-hydroxy-6-methyl-1,4-oxazepan-4-yl)pyrido[4′,3′:4,5]thieno [2,3-d]pyrimidin-8-yl)-6,7-dihydrocyclopenta[f]inda-zol-5(1H)-one] are 245 nM, 138 nM, 80 nM and 171 nM.
The matching figures for `COCC1CCc2cc3[nH]ncc3c(-c3nccc4c3sc3nc(OC[C@@]56CCCN5C[C@H](F)C6)nc(N5CCOC[C@@](C)(O)C5)c34)c21` (single isomer, unassigned) [Ex-97]: 7.19 nM, 9.73 nM, 3.16 nM and 8.37 nM.
As for `CCC1CCc2cc3[nH]ncc3c(-c3nccc4c3sc3nc(OC[C@@]56CCCN5C/C(=C\F)C6)nc(N5CCOC[C@@](C)(O)C5)c34)c21` (stereo partly drawn) [Ex-94, (6S)-4-(8-(5-ethyl-1,5,6,7-tetrahydrocyclopenta[f]in-dazol-4-y1)-2-(((S,Z)-2-(fluoromethylene)tetrahy-dro-1H-pyrrolizin-7a(5H)-yl)methoxy)pyrido[4′,3':4,5]thi-eno[2,3-d]pyrimidin-4-y1)-6-methyl-1,4-oxazepan-6-ol], the IC50 was 4.2 nM in assay [1], 5.33 nM in assay [2], 1.68 nM in assay [3] and 3.82 nM in assay [4].
Regarding `C#Cc1c(Cl)cc2[nH]ncc2c1-c1nccc2c1sc1nc(OC[C@@]34CCCN3C[C@H](F)C4)nc(N3CCOC[C@@](C)(O)C3)c12` [Ex-158, (6S)-4-(8-(6-chloro-5-ethynyl-1H-indazol-4-yl)-2-(((2R,7aS)-2-fluorotetrahydro-1H-pyrrolizin-7a(5H)-yl)methoxy)pyrido[4′,3′:4,5]thieno[2,3-d]pyrimidin-4-yl)-6-methyl-1,4-oxazepan-6-ol], the IC50 in assay [1] stood at 15.5 nM; in assay [2], 15.4 nM; in assay [3], 7.18 nM; in assay [4], 26.9 nM.
The corresponding values for `CC(=O)c1c(C(F)(F)F)cc2[nH]ncc2c1-c1nccc2c1sc1nc(OC[C@@]34CCCN3C[C@H](F)C4)nc(N3CCOC[C@@](C)(O)C3)c12` [Ex-59] are 125 nM, 183 nM, 71.9 nM and 112 nM.
The matching figures for `Cc1cc2[nH]ncc2c(-c2nccn3c2c(C)c2nc(OC[C@@]45CCCN4C[C@H](F)C5)nc(N4CCOC[C@@](C)(O)C4)c23)c1C(F)(F)F` (single isomer, unassigned) [Ex-301]: 86.1 nM, 107 nM, 49.5 nM and 107 nM.
The matching figures for `C#Cc1n[nH]c2cc(C)c(C(F)(F)F)c(-c3nccc4c3sc3nc(OC[C@@]56CCCN5C[C@H](F)C6)nc(N5CCOC[C@@](C)(O)C5)c34)c12` [Ex-151, (6S)-4-(8-(3-ethynyl-6-methyl-5-(trifluoromethyl)-1H-indazol-4-yl)-2-(((2R,7aS)-2-fluorotetrahydro-1H-pyrrolizin-7a(5H)-yl)methoxy)pyrido[4′,3′:4,5]thieno[2,3-d]pyrimidin-4-yl)-6-methyl-1,4-oxazepan-6-ol]: 1180 nM, 572 nM, 393 nM and 690 nM.
Consider `C[C@@]1(O)COCCN(c2nc(OC[C@@]34CCCN3C[C@H](F)C4)nc3sc4c(-c5c6c(cc7[nH]ncc57)CCC6)nccc4c23)C1` [Ex-111, (6S)-4-(2-(((2R,7aS)-2-fluorotetrahydro-1H-pyrrolizin-7a(5H)-yl)methoxy)-8-(1,5,6,7-tetrahydrocyclopenta[f]in-dazol-4-yl)pyrido[4′,3′:4,5]thieno [2,3-d]pyrimidin-4-yl)-6-methyl-1,4-oxazepan-6-ol], for which the concentration for half-maximal inhibition (IC50) in assay [1] was found to be 38.1 nM; in assay [2], 44.4 nM; in assay [3], 18.7 nM; in assay [4], 34.1 nM.
The corresponding values for `C#Cc1cccc2cccc(-c3nncc4c3sc3nc(OC[C@@]56CCCN5C[C@H](F)C6)nc(N5CCOC[C@@](C)(O)C5)c34)c12` [Ex-285] are 1000 nM, 645 nM, 322 nM and 889 nM.
`Cc1cc2[nH]ncc2c(-c2nccn3c2c(C)c2nc(OC[C@@]45CCCN4C[C@H](F)C5)nc(N4CCOC[C@@](C)(O)C4)c23)c1C1CC1` [Ex-298, (S)-4-(9-(5-cyclopropyl-6-methyl-1H-indazol-4-yl)-2-(((2R,7aS)-2-fluorotetrahydro-1H-pyrrolizin-7a(5H)-yl)methoxy)-10-methylpyrazi-no[1′,2′:1,5]pyrrolo[3,2-d]pyrimidin-4-yl)-6-methyl-1,4-oxazepan-6-ol]: the IC50 in assay [1] turned out to be 159 nM; in assay [2], 85.2 nM; in assay [3] it was 49.8 nM; in assay [4], 113 nM.
Regarding `C=CC1CCc2cc3[nH]ncc3c(-c3nccc4c3sc3nc(OC[C@@]56CCCN5C[C@H](F)C6)nc(N5CCOC[C@@](C)(O)C5)c34)c21` (single isomer, unassigned) [Ex-93], the IC50 in assay [1] is 3.7 nM; in assay [2], 7.03 nM; in assay [3], 1.64 nM; in assay [4] it was 3.13 nM.
Regarding `COC1c2c(cc3[nH]ncc3c2-c2nccc3c2sc2nc(OC[C@@]45CCCN4C[C@H](F)C5)nc(N4CCOC[C@@](C)(O)C4)c23)CC1(F)F` (stereo partly drawn) [Ex-110, (6S)-4-(8-(6,6-difluoro-5-methoxy-1,5,6,7-tetrahydrocyclopenta[f]in-dazol-4-yl)-2-(((2R,7aS)-2-fluorotetrahydro-1H-pyrrolizin-7a(5H)-yl)methoxy)pyrido[4′,3′:4,5]thi-no[2,3-d]pyrimidin-4-yl)-6-methyl-1,4-oxazepan-6-ol], the half-inhibitory concentration (IC50) in assay [1] was 43 nM; in assay [2], 57.7 nM; in assay [3], 37.7 nM; in assay [4], 47.5 nM.
The corresponding values for `C[C@@H]1C[C@@H]1c1c(Cl)cc2[nH]ncc2c1-c1nccc2c1sc1nc(OC[C@@]34CCCN3C[C@H](F)C4)nc(N3CCOC[C@@](C)(O)C3)c12` (atropisomer, axis not shown; (aS)) [Ex-68, (S)-4-((R)-8-(6-chloro-5-((1S,2R)-2-methylcyclopropyl)-1H-indazol-4-yl)-2-(((2R,7aS)-2-fluorotetrahydro-1H-pyrrolizin-7a(5H)-yl)methoxy)pyrido[4′,3′:4,5]thi-eno[2,3-d]pyrimidin-4-yl)-6-methyl-1,4-oxazepan-6-ol] are 97.2 nM, 39 nM, 21.9 nM and 57.3 nM.
Take `CCC1CC(F)(F)c2cc3[nH]ncc3c(-c3nccc4c3sc3nc(OC[C@@]56CCCN5C[C@H](F)C6)nc(N5CCOC[C@@](C)(O)C5)c34)c21` (stereo partly drawn) [Ex-102, (6S)-4-(8-(5-ethyl-7,7-difluoro-1,5,6,7-tetrahydrocyclopenta[f]in-dazol-4-yl)-2-(((2R,7aS)-2-fluorotetrahydro-1H-pyrrolizin-7a(5H)-yl)methoxy)pyrido[4′,3′:4,5]thi-eno[2,3-d]pyrimidin-4-yl)-6-methyl-1,4-oxazepan-6-ol]: the IC50 was found to be 10.4 nM in assay [1], 10.3 nM in assay [2], 3.56 nM in assay [3] and 7.84 nM in assay [4].
